Measurements as given in patent publication US8952024B2, “Herbicidal pyrimidone derivatives” (E I du Pont de Nemours and Company, priority 2009, dated 2015).

What was measured:
Format in all cases: in vivo
[1] = tested on: giant foxtail (Setaria faberii); assay: Test A pre-/postemergence plant response; conditions: for Foxtail, Giant plant response rating: visual injury, 0 to 100 scale (0 no effect, 100 complete control), approx. ten days
From the text: (§1) Seeds of barnyardgrass (Echinochloa crus-galli), large crabgrass (Digitaria sanguinalis), giant foxtail (Setaria faberii), morningglory (Ipomoea spp.), pigweed (Amaranthus retroflexus), velvetleaf (Abutilon theophrasti), wheat (Triticum aestivum) and corn (Zea mays) were planted into a blend of loam soil and sand and treated preemergence with a directed soil spray using test chemicals formulated in a non-phytotoxic solvent mixture which included a surfactant. At the same time these species were also treated with postemergence applications of test compounds formulated in the same manner.
(§2) Plants ranged in height from two to ten cm and were in the one- to two-leaf stage for the postemergence treatment. Treated plants and untreated controls were maintained in a greenhouse for approximately ten days, after which time all treated plants were compared to untreated controls and visually evaluated for injury. Plant response ratings, summarized in Table A, are based on a 0 to 100 scale where 0 is no effect and 100 is complete control. A dash (-) response means no test result.

[2] = tested on: morningglory (Ipomoea spp.); assay: Test A pre-/postemergence plant response; conditions: for Morningglory plant response rating: visual injury, 0 to 100 scale (0 no effect, 100 complete control), approx. ten days
From the text: as §1, §2

[3] = tested on: barnyardgrass (Echinochloa crus-galli); assay: Test A pre-/postemergence plant response; conditions: for Barnyardgrass plant response rating: visual injury, 0 to 100 scale (0 no effect, 100 complete control), approx. ten days
From the text: as §1, §2

[4] = tested on: large crabgrass (Digitaria sanguinalis); assay: Test A pre-/postemergence plant response; conditions: for Crabgrass, Large plant response rating: visual injury, 0 to 100 scale (0 no effect, 100 complete control), approx. ten days
From the text: as §1, §2

corn (Zea mays) = assay: Test A pre-/postemergence plant response; conditions: for Corn plant response rating: visual injury, 0 to 100 scale (0 no effect, 100 complete control), approx. ten days
From the text: as §1, §2

[5] = tested on: wheat (Triticum aestivum); assay: Test A pre-/postemergence plant response; conditions: for Wheat plant response rating: visual injury, 0 to 100 scale (0 no effect, 100 complete control), approx. ten days
From the text: as §1, §2

[6] = tested on: velvetleaf (Abutilon theophrasti); assay: Test A pre-/postemergence plant response; conditions: for Velvetleaf plant response rating: visual injury, 0 to 100 scale (0 no effect, 100 complete control), approx. ten days
From the text: as §1, §2

[7] = tested on: pigweed (Amaranthus retroflexus); assay: Test A pre-/postemergence plant response; conditions: for Pigweed plant response rating: visual injury, 0 to 100 scale (0 no effect, 100 complete control), approx. ten days
From the text: as §1, §2

[8] = tested on: ducksalad (Heteranthera limosa); assay: Test B flooded paddy test; conditions: for Plant response rating, Ducksalad: Flood (flooded paddy test), 13 to 15 days
Outline: (§3)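 Greenhouse-held for 13 to 15 days, treated pots were compared visually with controls and scored 0–100 (0, no effect). Treatment had been made into paddy water kept at 3 cm above the soil, with plants at the 2-leaf stage.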

[9] = tested on: barnyardgrass (Echinochloa crus-galli); assay: Test B flooded paddy test; conditions: for Plant response rating, Barnyardgrass: Flood (flooded paddy test), 13 to 15 days
Outline: as §3

[10] = tested on: umbrella sedge (Cyperus difformis); assay: Test B flooded paddy test; conditions: for Plant response rating, Sedge, Umbrella: Flood (flooded paddy test), 13 to 15 days
Outline: as §3

rice (Oryza sativa) = assay: Test B flooded paddy test; conditions: for Plant response rating, Rice: Flood (flooded paddy test), 13 to 15 days
Outline: as §3

[11] = Postemergence, 125 g ai/ha, 0 to 100 scale where 0 is no effect and 100 is complete control
[12] = Preemergence, 125 g ai/ha, 0 to 100 scale, 0 = no effect, 100 = complete control
[13] = Preemergence, 500 g ai/ha, 0 to 100 scale, 0 = no effect, 100 = complete control
[14] = 250 g ai/ha, flooded paddy test, visual rating on 0 to 100 scale (0 no effect, 100 complete control) after 13 to 15 days
[15] = 62 g ai/ha, scale of 0 to 100 where 0 is no effect and 100 is complete control
[16] = 125 g ai/ha, scale 0 to 100, 0 is no effect, 100 is complete control
[17] = Flood, 31 g ai/ha, scale 0 to 100 (0 no effect, 100 complete control)

Row | SMILES | Plant response rating, Foxtail, Giant [1, 11] | Foxtail, Giant plant response rating ([1]; Postemergence, 500 g ai/ha) | Plant response rating, Foxtail, Giant [1, 12] | Plant response rating, Foxtail, Giant [1, 13] | Plant response rating, Morningglory [2, 11] | Morningglory plant response rating ([2]; Postemergence, 500 g ai/ha) | Plant response rating, Morningglory [2, 12] | Plant response rating, Morningglory [2, 13] | Plant response rating, Barnyardgrass [3, 11] | Barnyardgrass plant response rating ([3]; Postemergence, 500 g ai/ha) | Plant response rating, Barnyardgrass [3, 12] | Plant response rating, Barnyardgrass [3, 13] | Plant response rating, Crabgrass, Large [4, 11] | Crabgrass, Large plant response rating ([4]; Postemergence, 500 g ai/ha) | Plant response rating, Crabgrass, Large [4, 12] | Plant response rating, Crabgrass, Large [4, 13] | Plant response rating, Corn (corn (Zea mays); [11]) | Corn plant response rating (corn (Zea mays); Postemergence, 500 g ai/ha) | Plant response rating, Corn (corn (Zea mays); [12]) | Plant response rating, Corn (corn (Zea mays); [13]) | also measured
1 | O=C1CCCC(O)=C1C(=O)c1cnc(-c2ccco2)n(C2CCCCC2)c1=O [Compound 188] | 40 | 80 | 10 | 40 | 90 | 100 | 70 | 80 | 70 | 90 | 0 | 30 | 80 | 90 | 30 | 70 | 0 | 10 | 0 | 0 | Plant response rating, Wheat [5, 11]: 0; Wheat plant response rating ([5]; Postemergence, 500 g ai/ha): 0; Plant response rating, Wheat [5, 12]: 0; Plant response rating, Wheat [5, 13]: 0; Plant response rating, Velvetleaf [6, 11]: 100; Velvetleaf plant response rating ([6]; Postemergence, 500 g ai/ha): 100; Plant response rating, Velvetleaf [6, 12]: 70; Plant response rating, Velvetleaf [6, 13]: 80; Plant response rating, Pigweed [7, 11]: 90; Pigweed plant response rating ([7]; Postemergence, 500 g ai/ha): 100; Plant response rating, Pigweed [7, 12]: 60; Plant response rating, Pigweed [7, 13]: 80; Plant response rating, Flood, Ducksalad [8, 14]: 85; Plant response rating, Ducksalad [8, 15]: 70; Plant response rating, Flood, Barnyardgrass [9, 14]: 0; Plant response rating, Barnyardgrass [9, 15]: 0; Plant response rating, Flood, Sedge, Umbrella [10, 14]: 85; Plant response rating, Sedge, Umbrella [10, 15]: 80; Plant response rating, Flood, Rice (rice (Oryza sativa); [14]): 15; Plant response rating, Rice (rice (Oryza sativa); [15]): 0
2 | COc1ccc(-n2c(-c3cccc(Br)c3)ncc(C(=O)C3=C(O)CCCC3=O)c2=O)cc1 [Compound 176] | 10 | 70 | 10 | 50 | 0 | 50 | 0 | 20 | 50 | 90 | 10 | 30 | 10 | 60 | 0 | 20 | 0 | 10 | 0 | 0 | Plant response rating, Wheat [5, 11]: 0; Wheat plant response rating ([5]; Postemergence, 500 g ai/ha): 0; Plant response rating, Wheat [5, 12]: 0; Plant response rating, Wheat [5, 13]: 0; Plant response rating, Velvetleaf [6, 11]: 80; Velvetleaf plant response rating ([6]; Postemergence, 500 g ai/ha): 90; Plant response rating, Velvetleaf [6, 12]: 10; Plant response rating, Velvetleaf [6, 13]: 50; Plant response rating, Pigweed [7, 11]: 100; Pigweed plant response rating ([7]; Postemergence, 500 g ai/ha): 100; Plant response rating, Pigweed [7, 12]: 60; Plant response rating, Pigweed [7, 13]: 100; Plant response rating, Ducksalad [8, 16]: 75; Ducksalad plant response rating [8, 17]: 40; Plant response rating, Barnyardgrass [9, 16]: 0; Barnyardgrass plant response rating [9, 17]: 0; Plant response rating, Sedge, Umbrella [10, 16]: 85; Sedge, Umbrella plant response rating [10, 17]: 70; Plant response rating, Rice (rice (Oryza sativa); [16]): 20; Rice plant response rating (rice (Oryza sativa); [17]): 15
